ChEMBL document CHEMBL1201862, “PubChem BioAssay data set” (2004)
Active and inactive are the calls of the source. Unless noted, the calls are words filed in the database; no cut-off is given here.

What was measured:
[1] = Artemis endonuclease inhibitor potency, dose response, biochemical, fluorescence intensity (AID 720701); assay type: functional;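 further: Artemis endonuclease enzyme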
Leucine aminopeptidase = target: T1, Leucine aminopeptidase (Plasmodium falciparum 3D7, UniProt Q8IL11); experiment: P. falciparum M17LAP inhibitors, primary screen, biochemical, fluorogenic H-Leu-NHMec substrate, 1536-well (AID 1619); assay type: functional
T1 sequence (Q8IL11 whole entry): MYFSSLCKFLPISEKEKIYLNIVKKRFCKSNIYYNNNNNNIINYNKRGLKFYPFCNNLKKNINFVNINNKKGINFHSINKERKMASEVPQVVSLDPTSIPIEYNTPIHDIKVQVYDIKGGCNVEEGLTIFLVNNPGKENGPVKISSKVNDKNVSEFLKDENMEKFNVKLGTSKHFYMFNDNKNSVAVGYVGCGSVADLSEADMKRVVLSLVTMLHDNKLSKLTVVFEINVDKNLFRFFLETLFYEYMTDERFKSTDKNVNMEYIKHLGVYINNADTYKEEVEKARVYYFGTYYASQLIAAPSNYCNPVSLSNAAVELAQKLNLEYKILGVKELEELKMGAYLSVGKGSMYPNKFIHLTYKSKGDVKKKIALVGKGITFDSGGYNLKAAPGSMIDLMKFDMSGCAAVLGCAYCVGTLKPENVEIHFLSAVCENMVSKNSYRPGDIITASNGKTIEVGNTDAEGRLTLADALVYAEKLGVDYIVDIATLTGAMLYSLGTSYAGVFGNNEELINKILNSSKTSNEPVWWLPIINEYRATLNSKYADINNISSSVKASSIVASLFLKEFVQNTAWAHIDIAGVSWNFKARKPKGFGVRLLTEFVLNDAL

Aminopeptidase N = target: T2, Aminopeptidase N (Plasmodium falciparum FcB1/Columbia, UniProt O96935); experiment: P. falciparum M1AAP inhibitors, biochemical, fluorogenic H-Leu-NHMec substrate, 1536-well (AID 1445); parameters: species or system Plasmodium falciparum 3D7, 3D7
T2 sequence (O96935 whole entry): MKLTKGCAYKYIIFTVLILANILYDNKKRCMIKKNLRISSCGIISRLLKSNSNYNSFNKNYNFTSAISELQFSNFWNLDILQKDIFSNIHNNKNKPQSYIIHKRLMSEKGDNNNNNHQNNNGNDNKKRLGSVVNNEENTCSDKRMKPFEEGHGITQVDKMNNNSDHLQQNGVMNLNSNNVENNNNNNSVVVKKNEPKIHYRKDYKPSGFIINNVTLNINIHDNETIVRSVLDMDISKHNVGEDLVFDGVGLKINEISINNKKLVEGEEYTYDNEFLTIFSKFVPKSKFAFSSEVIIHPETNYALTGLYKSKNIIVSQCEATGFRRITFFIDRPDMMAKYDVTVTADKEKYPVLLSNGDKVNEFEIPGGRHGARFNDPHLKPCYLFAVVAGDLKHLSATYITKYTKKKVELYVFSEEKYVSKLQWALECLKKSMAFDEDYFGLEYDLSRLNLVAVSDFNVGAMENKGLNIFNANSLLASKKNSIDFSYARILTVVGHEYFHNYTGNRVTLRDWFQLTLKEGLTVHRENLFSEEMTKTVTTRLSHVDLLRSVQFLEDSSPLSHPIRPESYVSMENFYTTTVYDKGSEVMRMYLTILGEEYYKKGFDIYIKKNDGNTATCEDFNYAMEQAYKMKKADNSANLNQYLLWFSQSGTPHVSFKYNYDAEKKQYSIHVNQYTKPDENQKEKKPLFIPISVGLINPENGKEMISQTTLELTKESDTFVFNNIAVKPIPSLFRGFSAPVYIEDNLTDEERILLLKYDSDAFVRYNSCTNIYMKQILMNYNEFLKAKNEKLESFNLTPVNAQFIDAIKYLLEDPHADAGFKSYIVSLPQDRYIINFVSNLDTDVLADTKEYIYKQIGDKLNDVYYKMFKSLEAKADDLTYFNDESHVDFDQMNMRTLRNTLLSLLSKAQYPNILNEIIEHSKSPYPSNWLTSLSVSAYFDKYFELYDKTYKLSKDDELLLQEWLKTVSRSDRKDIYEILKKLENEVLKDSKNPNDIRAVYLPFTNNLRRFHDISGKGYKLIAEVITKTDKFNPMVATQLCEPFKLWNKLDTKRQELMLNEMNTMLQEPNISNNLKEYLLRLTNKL

D(3) dopamine receptor = D(3) dopamine receptor (Homo sapiens, UniProt P35462); experiment: Counterscreening of D4 Antagonists against Dopamine 3 DRD3 (Human), Confirmatory Assay.; assay type: functional
D(1B) dopamine receptor = D(1B) dopamine receptor (Homo sapiens, UniProt P21918); experiment: Counterscreening of D4 Antagonists against Dopamine 5 DRD5 (Human), Confirmatory Assay.; assay type: functional
D(1A) dopamine receptor = D(1A) dopamine receptor (Homo sapiens, UniProt P21728); experiment: Counterscreening of D4 Antagonists against Dopamine 1 (Human), Confirmatory Assay.; assay type: functional
D(2) dopamine receptor [2] = target: T3, D(2) dopamine receptor (Homo sapiens, UniProt P14416); experiment: Counterscreening of D4 Antagonists against Dopamine 2S (Human), Confirmatory Assay.; assay type: functional
D(2) dopamine receptor [3] = target: T3, D(2) dopamine receptor; experiment: D2L dopamine receptor antagonism, confirmation, counter-screen for D4 antagonist project, cell-based, D2L isoform, human (AID 743377); assay type: functional
[4] = target: G-protein coupled receptor 183 (Homo sapiens, UniProt P32249); experiment: SAR confirmation of small molecule antagonists of the EBI2 receptor via a luminescent beta-arrestin assa.; assay type: functional
[5] = P. falciparum Dd2 growth inhibitors, dose response, SYBR Green, dry powder samples, set 9 (AID 1159568); assay type: functional, cell-based

T3 sequence (P14416 whole entry, canonical isoform): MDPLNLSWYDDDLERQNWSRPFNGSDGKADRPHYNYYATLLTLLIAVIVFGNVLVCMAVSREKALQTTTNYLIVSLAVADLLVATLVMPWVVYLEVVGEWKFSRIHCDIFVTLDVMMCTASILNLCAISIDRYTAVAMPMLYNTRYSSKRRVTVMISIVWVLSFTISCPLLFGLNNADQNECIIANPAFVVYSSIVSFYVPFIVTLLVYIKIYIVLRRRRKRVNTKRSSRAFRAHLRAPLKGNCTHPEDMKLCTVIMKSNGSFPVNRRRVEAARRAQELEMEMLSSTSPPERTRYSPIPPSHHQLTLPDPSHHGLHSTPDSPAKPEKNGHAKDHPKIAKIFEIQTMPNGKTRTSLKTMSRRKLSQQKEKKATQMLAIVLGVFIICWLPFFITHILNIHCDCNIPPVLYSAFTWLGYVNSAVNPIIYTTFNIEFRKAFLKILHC
Chain of G-protein coupled receptor 183 (P32249 whole entry): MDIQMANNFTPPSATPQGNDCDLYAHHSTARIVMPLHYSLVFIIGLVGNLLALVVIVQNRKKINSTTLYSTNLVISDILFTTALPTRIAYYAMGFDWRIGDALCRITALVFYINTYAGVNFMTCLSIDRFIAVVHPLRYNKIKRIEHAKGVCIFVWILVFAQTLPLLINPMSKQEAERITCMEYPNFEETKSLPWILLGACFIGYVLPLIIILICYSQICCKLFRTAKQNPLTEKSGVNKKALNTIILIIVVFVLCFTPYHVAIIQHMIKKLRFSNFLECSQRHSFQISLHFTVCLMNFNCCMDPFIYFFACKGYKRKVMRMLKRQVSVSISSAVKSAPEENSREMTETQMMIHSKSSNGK
Chain of D(1B) dopamine receptor (P21918 whole entry): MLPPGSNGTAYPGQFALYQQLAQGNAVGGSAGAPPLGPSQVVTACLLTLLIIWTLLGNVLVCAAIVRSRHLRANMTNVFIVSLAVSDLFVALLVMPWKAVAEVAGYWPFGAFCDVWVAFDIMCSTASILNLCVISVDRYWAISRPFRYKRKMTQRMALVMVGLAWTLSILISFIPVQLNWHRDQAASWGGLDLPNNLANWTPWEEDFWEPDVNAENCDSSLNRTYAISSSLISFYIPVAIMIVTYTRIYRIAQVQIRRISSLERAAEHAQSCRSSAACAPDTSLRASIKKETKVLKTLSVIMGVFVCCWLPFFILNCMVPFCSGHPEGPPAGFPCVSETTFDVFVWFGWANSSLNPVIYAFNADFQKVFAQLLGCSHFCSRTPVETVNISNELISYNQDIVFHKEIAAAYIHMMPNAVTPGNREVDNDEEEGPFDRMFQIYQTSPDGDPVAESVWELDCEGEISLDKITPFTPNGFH
Chain of D(3) dopamine receptor (P35462 whole entry): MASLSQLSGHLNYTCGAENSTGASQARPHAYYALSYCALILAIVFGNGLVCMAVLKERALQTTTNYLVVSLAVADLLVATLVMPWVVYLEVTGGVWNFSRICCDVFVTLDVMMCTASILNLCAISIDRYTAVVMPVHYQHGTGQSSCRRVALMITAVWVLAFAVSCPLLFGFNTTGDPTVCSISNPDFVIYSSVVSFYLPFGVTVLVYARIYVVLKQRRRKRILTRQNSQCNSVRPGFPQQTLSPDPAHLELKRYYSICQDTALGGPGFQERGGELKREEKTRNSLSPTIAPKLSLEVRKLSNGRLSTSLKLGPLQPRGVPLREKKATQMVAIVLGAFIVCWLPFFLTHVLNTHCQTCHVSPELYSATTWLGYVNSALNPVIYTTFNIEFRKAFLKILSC
Chain of D(1A) dopamine receptor (P21728 whole entry): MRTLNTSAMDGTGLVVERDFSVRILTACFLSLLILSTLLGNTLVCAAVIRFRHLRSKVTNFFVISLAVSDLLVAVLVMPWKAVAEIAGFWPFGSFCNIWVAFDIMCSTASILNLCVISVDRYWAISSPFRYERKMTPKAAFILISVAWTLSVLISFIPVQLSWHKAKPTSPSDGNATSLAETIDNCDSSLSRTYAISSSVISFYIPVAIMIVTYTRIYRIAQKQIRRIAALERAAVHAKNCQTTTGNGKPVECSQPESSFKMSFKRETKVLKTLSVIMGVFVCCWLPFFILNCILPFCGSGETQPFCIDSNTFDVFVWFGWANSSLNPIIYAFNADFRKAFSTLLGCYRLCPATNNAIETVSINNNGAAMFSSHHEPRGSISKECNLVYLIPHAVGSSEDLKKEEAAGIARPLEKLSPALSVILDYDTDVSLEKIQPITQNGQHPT

## O=C(Cc1ccsc1-c1ccccc1)NO
[1]
  IC50: 1.4 µM (active)
Leucine aminopeptidase
  IC50: 43.4 µM (active)
Aminopeptidase N
  IC50: 10.4 µM (active)

## COc1ccc(CN2CCO[C@@H](CCc3ccccc3)C2)cc1
D(3) dopamine receptor
  IC50: 8.17 µM (active)
D(1B) dopamine receptor
  IC50: 20 µM (inactive)
D(1A) dopamine receptor
  IC50: 20 µM (inactive)
D(2) dopamine receptor [2]
  IC50: 20 µM (inactive)
D(2) dopamine receptor [3]
  IC50: 16.5 µM (active)

## O=C(/C=C/c1ccc(F)cc1)N1CCN(S(=O)(=O)c2ccc(Br)cc2)CC1
[4]
  IC50: 0.00343 µM (active)

## COc1ccc(NC(=O)N2CCCCN3[C@H](CO)[C@@H](c4ccc(-c5ccccc5F)cc4)[C@H]3C2)cc1
[5]
  AC50: 1.81 µM (active)
